Assay results: PubChem BioAssay (NCI)
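Step 1: Grow cells in 96-well plates. Step 2: Expose to compound for 48 hours at 5 concentrations. Step 3: Interpolate endpoints linearly; if unreached, use highest concentration. Here, GI50 denotes the concentration required for 50% inhibition of growth. TGI is the concentration that stops growth completely.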

Key:
Test in all cases: NCI anticancer screen, dose series, 48 h
DU-145 prostate = test system: DU-145 prostate
EKVX NSCLC = test system: EKVX NSCLC
K-562 leukemia = test system: K-562 leukemia
MCF7 breast = test system: MCF7 breast
MDA-MB-231 breast = test system: MDA-MB-231 breast
NCI-H522 lung = test system: NCI-H522 lung
SK-MEL-5 melanoma = test system: SK-MEL-5 melanoma
TK-10 renal = test system: TK-10 renal
UACC-62 melanoma = test system: UACC-62 melanoma
CCRF-CEM leukemia = test system: CCRF-CEM leukemia

| Structure (SMILES) | TGI (DU-145 prostate) | TGI (EKVX NSCLC) | TGI (K-562 leukemia) | TGI (MCF7 breast) | TGI (MDA-MB-231 breast) | TGI (NCI-H522 lung) | TGI (SK-MEL-5 melanoma) | TGI (TK-10 renal) | TGI (UACC-62 melanoma) | TGI (CCRF-CEM leukemia) | GI50 (CCRF-CEM leukemia) | GI50 (DU-145 prostate) | GI50 (K-562 leukemia) | GI50 (MCF7 breast) | GI50 (NCI-H522 lung) | GI50 (SK-MEL-5 melanoma) | GI50 (TK-10 renal) |
| --- | --- | --- | --- | --- | --- | --- | --- | --- | --- | --- | --- | --- | --- | --- | --- | --- | --- |
| COc1ccc(N2CC(=O)N(C(=O)COc3ccc(OCC(=O)N4C(=O)CN(c5ccc(OC)cc5)C4=S)cc3)C2=S)cc1 | > 100 µM | > 100 µM | > 100 µM | > 100 µM | > 100 µM | > 100 µM | > 100 µM | > 100 µM | > 100 µM |  |  |  |  |  |  |  |  |
| C[C@@]1(O)C2CC3CC1(c1ccccc1)CC(/C3=N/O)/C2=N\O (stereo partly drawn) | > 100 µM | > 100 µM | > 100 µM |  | > 100 µM | > 100 µM | > 100 µM |  | > 100 µM | > 100 µM |  |  |  |  |  |  |  |
| Cc1ccc2nc(SCC(=O)N=Nc3c(O)[nH]c4ccccc34)n(-c3ccccc3)c(=O)c2c1 | 26.2 µM | 29.2 µM | 61.9 µM | 29.6 µM | 22.8 µM |  | 29.1 µM | 29.2 µM | 30.6 µM | 34.5 µM |  |  |  |  |  |  |  |
| CCCCN(CCCC)Cc1cc(Nc2ccnc3cc(Cl)ccc23)ccc1O | > 100 µM |  | > 100 µM | > 100 µM |  | > 100 µM | > 100 µM | 26.4 µM |  | > 100 µM | 17.5 µM | > 100 µM | 2.3 µM | 8.91 µM | 3.75 µM | 8.29 µM | 2.62 µM |
| C=CCC1(C#N)C(=S)NC2=C(C(=O)CC(C)(C)C2)C1c1ccccc1 (stereo not drawn) | 40.5 µM | 60.5 µM | > 100 µM |  | > 100 µM |  | > 100 µM |  |  | > 100 µM |  |  |  |  |  |  |  |
| O=C(Nc1ccccc1F)c1cc2ccc(O)cc2oc1=Nc1cccc(F)c1 | 40.5 µM | 35.2 µM | 79.3 µM | 95.1 µM |  | > 100 µM | 18 µM |  | 29.6 µM | 15.3 µM |  |  |  |  |  |  |  |
| CC(=O)O[C@H]1CC(C)(C)C(=C=C/C(C)=C/C=C/C=C/C=C(C)/C=C2C=C(/C=C/[C@@]34O[C@]3(C)C[C@@H](O)CC4(C)C)C(=O)O/2)[C@](C)(O)C1 | > 100 µM |  | 57.2 µM | 20.7 µM | 97.4 µM |  | 28.9 µM | 21.3 µM | 24 µM | 10 µM |  |  |  |  |  |  |  |
| Oc1cc(Cc2ccccc2)c(Cc2ccccc2)cc1O | > 10 µM | > 10 µM | > 10 µM | > 10 µM | > 10 µM | > 10 µM | > 10 µM |  | > 10 µM | > 10 µM |  |  |  |  |  |  |  |
| Cc1ccc(C)c(NC(=O)C(=O)C(C(=O)c2ccc3ccccc3c2)C2OC(=O)c3ccccc32)c1 (stereo not drawn) |  | 51.1 µM | > 100 µM |  |  | 22.5 µM | 31.5 µM | 64.6 µM | 27.8 µM | 64.9 µM |  |  |  |  |  |  |  |
| COC(=O)C1(NC(=O)C(CC(=O)OCc2ccccc2)NC(=O)OCc2ccccc2)CCCCCC1 (stereo not drawn) | > 100 µM | > 100 µM | 82.9 µM | > 100 µM | > 100 µM | > 100 µM | 28.8 µM | > 100 µM | 34.3 µM |  |  |  |  |  |  |  |  |
| Cc1ccc(S(=O)(=O)NC(=O)Nc2nnc(S(N)(=O)=O)s2)cc1 | > 100 µM | > 100 µM | > 100 µM | > 100 µM | > 100 µM |  | > 100 µM | > 100 µM | > 100 µM | > 100 µM |  |  |  |  |  |  |  |
| Nc1n(CC(=O)c2ccccc2)nc2sc(-c3ccccc3)n[n+]12 | 87.7 µM | > 100 µM | > 100 µM | > 100 µM |  | 34.4 µM | 22 µM | > 100 µM | 25.1 µM | > 100 µM |  |  |  |  |  |  |  |
| O=S1(=O)c2ccccc2Oc2ccc(C(/C=N/O)=N/O)cc21 | 53 µM | 57.7 µM | > 100 µM | 92.5 µM | > 100 µM | 26.7 µM |  | 30.8 µM | > 100 µM | 72.1 µM |  |  |  |  |  |  |  |
| CCO/C(=N/S(=O)(=O)C(F)(F)F)N(C(C)C)C(C)C | > 100 µM | > 100 µM |  | > 100 µM | > 100 µM | > 100 µM | > 100 µM | > 100 µM | > 100 µM | > 100 µM |  |  |  |  |  |  |  |
| O=C(Nc1ccccc1)N(C1=NCC(CI)S1)c1ccc(F)c(F)c1 (stereo not drawn) | > 100 µM | > 100 µM | > 100 µM | > 100 µM | 83.5 µM |  | 37.2 µM | > 100 µM |  | 75.9 µM |  |  |  |  |  |  |  |
| O=C1[C@H](O)[C@@H]2C(O)O[C@H]3[C@@H]2N1C[C@H]3[Si](c1ccccc1)(c1ccccc1)c1ccccc1 (stereo partly drawn) | > 100 µM | > 100 µM | > 100 µM | > 100 µM | > 100 µM |  | > 100 µM | > 100 µM | > 100 µM |  |  |  |  |  |  |  |  |
| C1=C(c2ccccc2)SC(N2CCCCC2)S1 (stereo not drawn) |  | > 100 µM | > 100 µM |  |  | > 100 µM |  | > 100 µM | > 100 µM | > 100 µM |  |  |  |  |  |  |  |
| CCOC(=O)c1c(C)n(Cc2ccc(Cl)cc2Cl)c2c1cc(O)c1[nH]c3c(c12)CCCC3 | > 100 µM | > 100 µM |  | 52 µM | > 100 µM | 38.8 µM | 44.5 µM | 45.4 µM | 49.2 µM | 77.1 µM |  |  |  |  |  |  |  |
| C=CCn1c(=O)c(C)cn(COCCO)c1=O | > 100 µM | > 100 µM | > 100 µM | > 100 µM | > 100 µM | > 100 µM | > 100 µM | > 100 µM |  | > 100 µM |  |  |  |  |  |  |  |
| COc1cc2c(c(O)c1O)C(=O)C1CCC(=O)N1C2c1cccc2ccccc12 (stereo not drawn) | > 50 µM | > 50 µM | > 50 µM | > 50 µM |  | > 50 µM |  |  | > 50 µM | > 50 µM |  |  |  |  |  |  |  |
| c1ncn(C23C4C5C6C4C2C6C53)n1 (stereo not drawn) | > 100 µM | > 100 µM | > 100 µM | > 100 µM | > 100 µM | > 100 µM | > 100 µM | > 100 µM |  | > 100 µM |  |  |  |  |  |  |  |
| Cn1c(=O)c2[nH]c(N/N=N/c3nncs3)nc2n(C)c1=O | > 100 µM | > 100 µM | > 100 µM | > 100 µM | > 100 µM |  | > 100 µM | > 100 µM | > 100 µM | > 100 µM |  |  |  |  |  |  |  |
